Laboratory results reported in patent US4981847A, “Tricyclic compounds” (Fujisawa Pharmaceutical Co., Ltd., priority 1988, dated 1991).

Assays:
[1] = test system: CCK-8-induced inhibition of gastric emptying; test: Effect upon CCK-8-induced inhibition of gastric emptying in mice (CCK antagonism); assay type: in vivo; details: Mus musculus
Excerpt: Effect of test compound B upon CCK-8-induced inhibition of gastric emptying in mice (CCK antagonism).

[2] = biological target: T1, guinea pig cerebral cortical CCK receptors (Cavia porcellus, UniProt H0VZC5); test: Inhibition of binding of [125I] CCK-8 to guinea pig cerebral cortical CCK receptors
T1 construct: guinea pig cerebral cortical CCK receptors; from tissue; host or cells: guinea pig cerebral cortex
Excerpt: (C) Inhibition of binding of [^125 I] CCK-8 to guinea pig cerebral cortical CCK receptors by test compound B (CCK antagonism).

[3] = test system: caerulein-induced pancreatitis; test: Inhibitory effect on caerulein-induced pancreatitis in mice; assay type: in vivo; details: Mus musculus
Excerpt: (D) Inhibitory effect of test compound B on caerulein-induced pancreatitis in mice.

[4] = biological target: T2, rat pancreatic CCK receptors (Rattus norvegicus, UniProt P30551); test: Inhibition of binding of [125I] CCK-8 to rat pancreatic CCK receptors
T2 construct: rat pancreatic CCK receptors; from tissue; host or cells: rat pancreas
T2 sequence (P30551 1-444): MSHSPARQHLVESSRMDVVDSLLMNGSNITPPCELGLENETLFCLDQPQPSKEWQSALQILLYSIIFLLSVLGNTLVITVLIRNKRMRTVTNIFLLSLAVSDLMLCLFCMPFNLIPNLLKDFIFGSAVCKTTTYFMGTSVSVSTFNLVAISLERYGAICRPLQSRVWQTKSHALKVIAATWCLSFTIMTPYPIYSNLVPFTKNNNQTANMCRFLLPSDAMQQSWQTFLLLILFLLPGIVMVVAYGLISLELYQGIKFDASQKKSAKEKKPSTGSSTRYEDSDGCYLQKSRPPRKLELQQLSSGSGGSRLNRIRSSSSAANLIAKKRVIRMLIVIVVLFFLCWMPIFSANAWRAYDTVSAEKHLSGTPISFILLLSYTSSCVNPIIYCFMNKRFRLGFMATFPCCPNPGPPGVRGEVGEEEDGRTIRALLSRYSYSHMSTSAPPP
Excerpt: (B) Inhibition of binding of [^125 I] CCK-8 to rat pancreatic CCK receptors by test compound B (CCK antagonism).

[5] = test system: CCK receptor; test: CCK receptor antagonism in isolated fundic circular muscle from guinea pig stomach; assay type: cell-based; details: test compound 1×10^-6 M, CCK-8 3.2×10^-7 M, 37° C.
Procedure: (A) CCK receptor antagonism in isolated fundic circular muscle from guinea pig stomach
The strip of circular muscle suspended in 25 ml organ bath containing Krebs' bicarbonate solution (NaCl 118 mM, KCl 4.8 mM, KH2 PO4 1.2 mM, MgSO4 1.2 mM, CaCl2 2.5 mM, NaHCO3 25 mM, glucose 11 mM and bovine serum albumin 0.1%) maintained at 37° C. and gassed with 95% O2 and 5% CO2.
The strip was placed under an initial tension of 0.5 g and equilibrated for 60 minutes during which the bath volume was replaced every 15 minutes. Isometric contraction was measured using a force transducer. CCK-8 (3.2×10^-7 M) was added to the bathing solution and the contractile force was measured After washing out CCK-8, test compound A (1×10^-6 M) was added. 5 minutes later, CCK-8 was added and the contractile force was measured. CCK antagonism was calculated by comparing the contractile force induced by CCK in the absence or presence of test compound A.

T1 sequence (H0VZC5 entry or part of it): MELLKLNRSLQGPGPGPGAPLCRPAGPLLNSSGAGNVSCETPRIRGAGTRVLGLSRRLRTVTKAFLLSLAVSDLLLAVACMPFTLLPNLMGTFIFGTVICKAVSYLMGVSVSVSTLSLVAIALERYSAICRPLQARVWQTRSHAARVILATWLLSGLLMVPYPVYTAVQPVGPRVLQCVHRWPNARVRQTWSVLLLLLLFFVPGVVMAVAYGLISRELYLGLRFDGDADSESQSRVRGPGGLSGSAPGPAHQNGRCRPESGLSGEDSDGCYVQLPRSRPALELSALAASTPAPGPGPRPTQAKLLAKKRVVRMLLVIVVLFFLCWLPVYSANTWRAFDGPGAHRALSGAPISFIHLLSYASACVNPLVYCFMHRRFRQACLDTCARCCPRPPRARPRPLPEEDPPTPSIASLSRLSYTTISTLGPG

SMILES: O=C(N[C@H]1N=C(c2ccccc2F)c2cccc3c2N(CC3)C1=O)c1cc2ccccc2[nH]1 [test compound B, (3S)-1-(2-Fluorophenyl)-3,4,6,7,-tetrahydro-3-(2-indolylcarbonylamino)-4-oxopyrrolo[3,2,1-jk][1,4]-benzodiazepine]
- ED50 [1]: 0.01 mg/kg
- IC50 [2]: 31 nM
- ED50 [3]: 0.022 mg/kg
- IC50 [4]: 0.67 nM

SMILES: O=C(NC1N=C(c2ccccc2F)c2cccc3c2N(CC3)C1=O)c1cc2ccccc2[nH]1 (racemic) [test compound A, (3RS)-1-(2-Fluorophenyl)-3,4,6,7-tetrahydro-3-(2-indolylcarbonylamino)-4-oxopyrrolo[3,2,1-jk][1,4]benzodiazepine]
- Inhibition (%) of CCK-8-induced contraction [5]: 90.4%
